# Measured values taken from a melting point compilation (Tetko et al.; mined from patent text by program, amines drawn as free bases though some values may be those of a salt).
row,melting point [°C],Compound
1,192 to 193,COc1cc2c(cc1OCc1ccccc1)CCCNC2=O
2,77 to 78,Cc1ccc(-c2ccccc2)c(C)c1CO
3,90,O=C1OC(Cc2ccccc2)CN1c1ccccc1 (stereo not drawn)
4,135 to 136,Cc1cccnc1C(CO)COc1ccc([N+](=O)[O-])cc1 (stereo not drawn)
5,129 to 130,O=C1CC(=O)CC(CC2CCOCC2)C1
6,66 to 69,CCCCCCCCCCCCCCC(F)(F)P(=O)(O)O
7,140 to 142,N#Cc1c[nH]c(Cl)c1-c1ccccc1
8,121 to 122,CC(C)(C)OC(=O)N[C@@H]1C(=O)N(OCc2ccccc2)C1(C)C
9,54 to 55,CCCCCCCCCCCN(O)C(=O)N(C)C
10,114 to 115,Cc1c(C)c2c(c(C)c1N)CC(C)(CN1CCOCC1)O2 (stereo not drawn)
11,84 to 88,CC1(C)C(=O)NC(=O)c2ccccc21
12,122 to 123,COc1ccc(-c2ccccc2)cc1N1CCN(C(=O)Nc2cc3ccccc3nc2OC)CC1
13,80 to 81,CC1(C)CCC(C(=O)O)c2ccccc21 (stereo not drawn)
14,171 to 172,N#CN=C(Nc1cccnc1)NC1CC1
15,214 to 215,CC(C)n1cc(-c2c(-c3ccc(F)cc3)nn3ccncc23)ccc1=O
16,220 to 222,CC(C)n1nc(-c2cnc(N)nc2-c2cccc(F)c2)ccc1=O
17,159 to 160,COc1ccc2c(c1)C(c1ccc(OCCN(C)C)cc1)c1c-2ccc2ccccc12 (stereo not drawn)
18,165 to 166,COc1ccc(N2CCN(c3ccc([N+](=O)[O-])cn3)CC2)cc1
19,217 to 219,Cc1cc(COc2cccc3c2CN(C2CCC(=O)NC2=O)C3=O)ccc1Cl (stereo not drawn)
20,157 to 159,NC(=O)/C(=N/O)c1ccccc1Oc1ccccc1
21,199 to 200,O=C1OCCC12Oc1ccc([N+](=O)[O-])cc1C2=O (stereo not drawn)
22,262 to 264,COc1ccc2[nH]c(-c3cccc(C)c3)cc(=O)c2c1
23,96 to 98,CC(C)c1cccc(C(C)C)c1NC(=O)CCCCCSc1nc2cnccc2[nH]1
24,61 to 63,CCCSc1cscc1S(=O)(=O)NC(C)(C)C
25,198,O=C1CCC(c2ccccc2)(c2ccccc2)C2CN(C(Cc3ccccc3)=NCc3ccc(Cl)cc3)CC12 (stereo not drawn)

row,melting point [°C],Compound
1,191 to 192,COC(=O)NNc1cc(C)c(-c2ccc(C#N)cc2)nn1
2,157 to 159,N#CC(NC(=O)c1cccc(Cl)c1)n1ccnn1 (stereo not drawn)
3,186 to 188,C#Cc1cc(C)c(Oc2ccc([N+](=O)[O-])c(Nc3ccc(C#N)cc3)n2)c(C)c1
4,129 to 130,CC(C)(C)c1nc(C=O)cc(N)c1F
5,155 to 157,CN(C)C=CC(=O)c1cccc(NC(=O)C2CCC2)c1
6,69 to 70,COCOc1ccc(CCC(=O)c2c(OC)cc(OC)c(CCC(C)C)c2O)cc1OC
7,72 to 74,NS(=O)(=O)c1ccc(CNC(=O)c2cccnc2Oc2cccc(-n3cnnn3)c2)cc1
8,204 to 205,CCC(C(C)=CC(CNC(=O)c1cnc2nc(C)ccc2c1O)=NO)[N+](=O)[O-] (stereo not drawn)
9,193 to 194,COC1(OC)CN(c2cc3c(cc2F)c(=O)c(C(=O)O)cn3-c2ccc(F)cc2F)CC1C (stereo not drawn)
10,> 25,OC1CCCC(n2c(NC3CC3)nc3cc(Cl)c(Cl)cc32)C1O (stereo not drawn)
11,338 to 343,O=C1N=C(N2CCOCC2)SC1=Cc1ccc(F)c(-c2ccc(O)c(C34CC5CC(CC(C5)C3)C4)c2)c1
12,44 to 45,CCOC(=O)CC(=O)c1cc(F)c(Cl)cc1Cl
13,46 to 47.5,CCOC(=O)C(S)CC(=O)c1ccc(Oc2ccccc2)cc1 (stereo not drawn)
14,158,O=Cc1cccn1CCN1CCC(=C2c3ccccc3CCn3ccnc32)CC1
15,128 to 130,CNC(=S)c1cnn(-c2cccc(Cl)c2)c1Cl
16,140 to 141,CCOC(=O)c1cc(OCc2ccccc2)c2nc(C)c(C)n2c1
17,111 to 126,Nc1c(CCO)cccc1C(=O)c1ccc(Cl)cc1
18,44 to 46,CCN1CCc2cc3ccccc3n2CC1
19,165 to 168,Cc1cc(O)nc(SCC(CS(=O)(=O)c2ccc(-c3ccc(Cl)cc3)cc2)C(=O)O)n1 (stereo not drawn)
20,148 to 150,CC(=O)NC[C@H]1CN(c2ccc(N3CCC(n4cc(C#N)nn4)CC3)c(F)c2)C(=O)O1
21,158 to 159,C=C(C)OC(=O)N1C(=O)[C@H](C)Nc2cc(Cl)ccc21
22,217 to 218,CCOC(=O)c1cn(-c2cc(N(C)C(=O)OC(C)(C)C)c(F)cc2F)c2c(C)c(F)c(F)cc2c1=O
23,216 to 219,Cc1c(/C=C/C(=O)c2cn(C)c3ccccc23)ncn1C(c1ccccc1)(c1ccccc1)c1ccccc1
24,176 to 177,COc1ccc2c(c1)C=C(C(=O)O)CCO2
25,131 to 132,CC(C)c1ccc(N)nn1

row,melting point [°C],Compound
1,126 to 130,C=CC(O)c1cc(O)ccc1[N+](=O)[O-] (stereo not drawn)
2,131 to 132,COC(=O)c1ccc(Cn2nc(Cl)c3ccc([N+](=O)[O-])cc32)c(OC)c1
3,215 to 218,O=C(Cn1c(-c2ccc(Cl)cc2)nc2cccnc21)N1CCSC1
4,116 to 117,CSc1ncnn1C[C@]1(c2ccc(F)cc2F)O[C@@H]1c1ccccc1Cl (relative stereo)
5,160 to 162,CN(C)S(=O)(=O)c1cc2c(c(C(=O)Cl)c1)OCCO2
6,> 300,O=c1c2cc(Br)ccc2c2cc3c(=O)c4cc(Br)ccc4c3cc12
7,82 to 85,O=C1C(=CO)COc2ccc(OCc3ccccc3)cc21
8,50 to 52,COC(=O)C(=O)c1ccc(OCCCCCCOc2ccccc2)cc1
9,161 to 164,Cc1cc(=O)oc2cc(OS(N)(=O)=O)ccc12
10,101 to 103,CCOC(=O)C1=C(C)NC(OC)=NC1c1cccc([N+](=O)[O-])c1 (stereo not drawn)
11,170 to 171,CCOCc1nc2c(N)nc3c(c2n1CCCCS(C)(=O)=O)CCCC3
12,93 to 94,CC(=O)Oc1c(C)c(C)nc2ccccc12
13,190,CN1CCOc2ccc(/C=C/C(=O)O)cc21
14,198,CC(=O)Nc1c(C)cc2c(nc3n2CCC3)c1[N+](=O)[O-]
15,165 to 167,O=C1CC[C@H](CC(c2ccc(S(=O)(=O)C3CC3)cc2)c2ccc(-c3nccs3)[nH]2)C1 (stereo partly drawn)
16,89 to 91,CC(=O)SCCC(=O)N1c2ccccc2CCC1C(=O)O (stereo not drawn)
17,179 to 180,CN1CCN(Cc2cc(-c3ccc4c(c3)CCO4)nn(Cc3ccc(F)cc3)c2=O)CC1
18,156,COc1cccc(OC)c1-c1ccc(C[C@H](NC(=O)c2c(Cl)cc(-c3ccn[nH]3)cc2Cl)C(=O)O)cc1
19,107 to 108,CCC(CC)c1ccc(CN2CCCC2)c2nc(Oc3c(C)cc(Cl)cc3Cl)n(C)c12
20,96 to 99,COc1ccc2cc(C(=O)Cl)oc2c1
21,218,COC(=O)Nc1nc2cc(C(C3CC3)n3ccnc3)ccc2[nH]1 (stereo not drawn)
22,219,OC1CSC(Oc2ccc(-c3ccnc(F)c3)nc2)C(O)C1O (stereo not drawn)
23,200 to 205,O=c1c2cc(Br)ccc2[nH]n1-c1ccccc1F
24,82 to 85,CCOC(=O)c1csc(C2OC(COC(=O)c3ccccc3)C(O)C2O)n1 (stereo not drawn)
25,109,CC(C)OC(=O)c1cn(-c2cccc(Cl)c2)cn1

row,melting point [°C],Compound
1,197,COc1cc(N(Cc2cncs2)c2ccc(C(=O)O)cc2)ccc1C(N)=O
2,> 300,CC(=O)Nc1ccc2c(c1)Cc1cc(=O)[nH]nc1-2
3,< 30,Cc1ccc(S(=O)(=O)OC2CCC(C)C2)cc1 (stereo not drawn)
4,126 to 127,CCc1cccc(CC(=O)O)c1OCCCc1cn(-c2ccc(C(F)(F)F)nn2)nc1C(C)C
5,235 to 238,CC(C)(C)OC(=O)NCCc1cccc(C(=O)Nc2ccc(Nc3cc(-c4cccc5c4oc4ccccc45)ncn3)cc2)c1
6,268,CS(=O)(=O)c1cccc(NC(=O)c2cnn3c(C(F)(F)F)cc(-c4ccc(C(F)(F)F)c(Cl)c4)nc23)c1
7,191 to 193,CCOC(=O)c1[nH]c2cc3c(sc4ccccc43)c(C)c2c1C
8,184 to 186,COC(=O)c1nc2cccc(OC)c2c(O)c1C(=O)OC
9,175 to 178,COc1ccc(CCNC(=O)C(F)(F)F)c2c1NC(=O)C2
10,306,Clc1ccc(Nc2nnc(-c3ccc(-c4ccccc4)cc3)s2)cc1Cl
11,124 to 126,COc1ccc(CC(=O)Nc2cc(Cl)c(Cl)cc2[N+](=O)[O-])cc1
12,118 to 120,CN(C)CCCOc1ccc(N2N=C3c4cc(F)ccc4CCC3CC2=O)cc1 (stereo not drawn)
13,176 to 177,O=C(N[C@H](Cc1ccccc1)C(=O)O)OCc1ccc2[nH]c(-c3ccccc3)cc2c1
14,194 to 195,COc1ccc(S(=O)(=O)Nc2ccccc2NC(=O)c2ccncc2C)cc1
15,111 to 112,OCC1COC(Cn2cncn2)(c2ccc(Oc3ccccc3)cc2)O1 (stereo not drawn)
16,186,O=C(NNc1nc2ccccc2n2cccc12)c1cc2ccccc2[nH]1
17,184 to 185,O=C(O)CC(Cc1c[nH]c2ccccc12)(C(=O)O)C(=O)O
18,57 to 58,COc1ccc(C)c(OC(F)C(=O)c2ccccc2)c1 (stereo not drawn)
19,> 300,O=c1nc(-c2ccccc2)c2cc([N+](=O)[O-])ccc2[nH]1
20,82,CCOC(=O)NCc1cc(-c2ccccc2)no1
21,113,CCC(C(=O)c1ccc(Cl)cc1)n1ncn(-c2ccc(N3CCN(c4cc(C)cc(C)n4)CC3)nc2)c1=O (stereo not drawn)
22,105 to 107,CCOc1cc2nc(NC)nc(-c3cccc(-c4cccnc4SC)c3)c2cc1OCC
23,185 to 187,Cc1ccc(C(CC(=O)O)C(C#N)c2cccnc2)cc1 (stereo not drawn)

row,Compound,melting point [°C]
1,COc1ccc2[nH]cc(C3=CCN(C(=O)NCC4CCC(c5ccccc5)(N(C)C)CC4)CC3)c2c1 (stereo not drawn),98 to 104
2,CCCCCCCCCCCCCCCCCCOC(=O)P(=O)(OC)OC,41 to 42
3,Cc1c(C(=O)NC2CCN(Cc3ccccc3)CC2)c2cc(F)ccc2n1Cc1ccccc1,194 to 195
4,CCC(O)CP(=O)(O)CCCN (stereo not drawn),184 to 185
5,Nc1ccccc1C(=O)c1ccc(Br)cc1,104 to 106
